Measurements published in patent US20040197333A1, “Use of TGF-beta antagonists to inhibit tumor cell formation or progression” (Cornell Research Foundation, Inc., priority 2000, published 2004).

Tested on: A-549 cells
Assay: Scanning electron microscopy of cell morphology (invasive phenotype)
Format: cell-based, human
Conditions: 2ngm^−1 recombinant TGF-β1 protein
Excerpt: Scanning electron microscopy. […] Cells were fixed with PBS, pH 7.4, containing 2.0% glutaraldehyde, and processed as previously described (Ref 17). Samples were examined using a JEOL 25SIII electron microscope.
A-549 cells express functional receptors for TGF-β, and their growth and functions are regulated by TGF-β (refs. 7 and 8). The experiments with A-549 cells were established ex vivo to avoid any confounding effects of CsA-associated inhibition of in vivo immune surveillance mechanism(s).

Substance: recombinant TGF-β1 protein: recombinant TGF-β1 protein added to A-549 cells
- morphological alterations in A-549 cells: induced morphological alterations in A-549 cells that were similar to those elicited by CsA
